Measurements reported in patent US5369096A, “Glycolipid derivatives” (The Nisshin Oil Mills, Ltd., priority 1992, dated 1994).

Tests used:
Format in all cases: cell-based
[1] = system: HL-60 cells adhering to vascular endothelial cells of the normal human umbilical cord; test: inhibition of adhesion of HL-60 cells to rhIL1β-stimulated vascular endothelial cells, liposome dispersion; details: 20 μg/ml equivalent; for Amount of HL-60 cancer cells adhered (fluorescence intensity): rhIL1β 200 U/ml, 485 nm/535 nm
Protocol: (§1) A solution of 200 μg of phosphatidylcholine, 100 μg of cholesterol, 7.5 μg of dicetyl phosphate and 50 μg of a compound of the invention in a mixture of chloroform/methanol=2/1 (ca. 1 ml) was evaporated under reduced pressure to dryness followed by addition of 0.25 ml of a phosphate-buffered saline solution. The mixture was ultrasonicated (an output of 90 watts) for 5 min. and stirred (a vortex mixer) for 5 min. to form a liposome dispersion.
(§2) Vascular endothelial cells of the normal human umbilical cord grown to confluence were stimulated in 24-well plates with 200 U/ml of recombinant interleukin 1β (called hereafter rhIL1β, manufactured by Genzyme) at 37° C. for 4 hours. After removal of the supernatant by suction, liposome dispersions each prepared from a compound of the invention in an amount of 20 μg/ml equivalent were added except for the rhIL1β-untreated group (sample 1) and the treated groups (samples 2 and 3). The mixtures were then allowed to react at room temperature for 30 min. Subsequently, promyelocytic leukemia cell line HL-60 with 2',7'-bis(carboxyethyl)-5,6-carboxyfluorescene acetoxymethyl ester fluorescent dye enclosed was added at a level of 1×10^6 cells per well followed by centrifugal operation at 100 rpm for 20 min. Each well was washed three times followed by addition of 0.5 ml of 0.5% Triton X-100 and stirring. The contents were divided into 100 μl portions in 96-well plates and measurement was made on a Baxter fluorometer at 485 nm/535 nm.
4: rhIL1β-treated group+compound 5A-containing liposome dispersion-treated group (2EG)*
5: rhIL1β-treated group+compound 5B-containing liposome dispersion-treated group (3EG)*
6: rhIL1β-treated group+compound 5C-containing liposome dispersion-treated group (4EG)*
7: rhIL1β-treated group+compound 5D-containing liposome dispersion-treated group (5EG)*
* 2EG, 3EG, 4EG or 5EG represents a compound of the invention containing 2, 3, 4 or 5 CH2 CH2 O units, respectively. The same shall apply hereinafter.
(§3) % Inhibition of adhesion=100-[(fluorescence intensity for rhIL1β-treated group+compound-free or a compound-containing liposome dispersion-treated group)-(fluorescence intensity for rhIL1β-untreated group)/(fluorescence intensity for rhIL1β-treated group-fluorescence intensity for rhIL1β-untreatedgroup)]×100

[2] = system: Colo 201 cancer cells adhering to vascular endothelial cells of the normal human umbilical cord; test: inhibition of adhesion of Colo 201 cancer cells to rhIL1β-stimulated vascular endothelial cells, liposome dispersion; details: 11.8 μM equivalent; for Amount of Colo 201 cells adhered (fluorescence intensity): rhIL1β 200 U/ml, 485 nm
Protocol: as §1, §3
Vascular endothelial cells of the normal human umbilical cord grown to confluence were stimulated in 24-well plates with 200 U/ml of rhIL1β at 37° C. for 4 hours. After removal of the supernatant by suction liposome dispersions each prepared from 2→3 sialyl Le^x or a compound of the invention in an amount of 11.8 μM equivalent were added except for the rhIL1β-untreated and treated groups. The mixtures were then allowed to react at room temperature for 30 min. Subsequently, colon carcinoma cell line Colo 201 with 2',7'-bis-(carboxyethyl)-5,6-carboxyfluorescene acetoxymethyl ester fluorescent dye enclosed was added at a level of 1×10^6 cells per well followed by centrifugal operation at 100 rpm for 20 min. Each well was washed three times followed by addition of 0.5 ml of 0.5% Triton X-100 and stirring. The contents were divided into 100 μl portions in 96-well plates and measurement was made on a Baxter fluorometer at 485 nm.
4: rhIL1β-treated group+2→3 sialyl Le^x -containing liposome dispersion-treated group
5: rhIL1β-treated group+compound 5E-containing liposome dispersion-treated group (OEG)*
6: rhIL1β-treated group+compound 5A-containing liposome dispersion-treated group (2EG)
7: rhIL1β-treated group+compound 5B-containing liposome dispersion-treated group (3EG)
8: rhIL1β-treated group+compound 5C-containing liposome dispersion-treated group (4EG)
9: rhIL1β-treated group+compound 5D-containing liposome dispersion-treated group (5EG)
* OEG represents a control compound containing no CH2 CH2 O unit. The same shall apply hereinafter.
Amount adhered and % inhibition of adhesion of Colo 201 cancer cells as measured from fluorescence intensity are shown in Table 2 below.

[3] = system: HL-60 cancer cells adhering to vascular endothelial cells of the normal human umbilical cord; test: inhibition of adhesion of HL-60 cancer cells to rhIL1β-stimulated vascular endothelial cells, oily emulsion; details: 20 μg/ml equivalent; for Amount of HL-60 cancer cells adhered (fluorescence intensity): rhIL1β 200 U/ml, 485 nm/535 nm
Protocol: A mixed solution of 6 mg of egg yolk lecithin (manufactured by Nacalaitesque Inc.), 30 μl of soybean oil J. P. (manufactured by Yoshida Seiyaku), 470 μl of distilled water for injection (manufacturedby Otsuka Seiyaku) and 125 μg of a compound of the invention was ultrasonicated (an output of 90 watts) for 10 min. to prepare an oily emulsion. The oily emulsion was further passed through a polycarbonate membrane filter having 0.2 μm average pore diameter (manufactured by Millipore) to provide an average particle size of 0.2 μm.
as §2, with “rhIL1β” for “recombinant interleukin 1β (called hereafter rhIL1β, manufactured by Genzyme)”, “oily emulsions” for “liposome dispersions”
4: rhIL1β-treated group+2→3 sialyl Lewis X (natural type)-containing oily emulsion dispersion-treated group
5: rhlL1β-treated group+compound 5E-containing oily emulsion dispersion-treated group (OEG)
6: rhIL1β-treated group+compound 5A-containing oily emulsion dispersion-treated group (2EG)
7: rhIL1β-treated group+compound 5B-containing oily emulsion dispersion-treated group (3EG)
8: rhIL1β-treated group+compound 5C-containing oily emulsion dispersion-treated group (4EG)
9: rhIL1β-treated group+compound 5D-containing oily emulsion dispersion-treated group (5EG)
as §3, with “inhibition” for “Inhibition”, “oily emulsion” for “liposome”

CCCCCCCCCCCCCCC(CCCCCCCCCCCCCC)C(=O)Nc1ccc(COCCOCCO[C@@H]2O[C@H](CO)[C@@H](O[C@@H]3O[C@H](CO)[C@H](O)[C@H](O[C@]4(C(=O)O)C[C@H](O)[C@@H](NC(C)=O)[C@H]([C@H](O)[C@H](O)CO)O4)[C@H]3O)[C@H](O[C@@H]3O[C@@H](C)[C@@H](O)[C@@H](O)[C@@H]3O)[C@H]2O)cc1 [Compound 5A, O-(5-acetamido-3,5-dideoxy-D-glycero-α-D-galacto-2-nonulopyranosylonic acid)-(2→3)-O-β-D-galactopyranosyl-(1→4)-[O-α-L-fucopyranosyl-(1→3)-O-β-D-glucopyranosyl]-(1→1)-5-O-para-(2-tetradecylhexadecanoyl)aminobenzyl-3-oxapentane-1,5-diol]
Amount of HL-60 cancer cells adhered (fluorescence intensity) [1]: 22769
% Inhibition of adhesion ([1]; HL-60 cells): 80.04%
Amount of Colo 201 cells adhered (fluorescence intensity) [2]: 246293
% Inhibition of adhesion ([2]; Colo 201 cells): 66.69%
Amount of HL-60 cancer cells adhered (fluorescence intensity) [3]: 13287
% Inhibition of adhesion ([3]; HL-60 cells): 65.3%

CCCCCCCCCCCCCCC(CCCCCCCCCCCCCC)C(=O)Nc1ccc(COCCOCCOCCO[C@@H]2O[C@H](CO)[C@@H](O[C@@H]3O[C@H](CO)[C@H](O)[C@H](O[C@]4(C(=O)O)C[C@H](O)[C@@H](NC(C)=O)[C@H]([C@H](O)[C@H](O)CO)O4)[C@H]3O)[C@H](O[C@@H]3O[C@@H](C)[C@@H](O)[C@@H](O)[C@@H]3O)[C@H]2O)cc1 [Compound 5B, O-(5-acetamido-3,5-dideoxy-D-glycero-α-D-galacto-2-nonulopyranosylonic acid)-(2→3)-O-β-D-galactopyranosyl-(1→4)-[O-α-L-fucopyranosyl-(1→3)-O-β-D-glucopyranosyl]-(1→1)-8-O-para-(2-tetradecylhexadecanoyl)aminobenzyl-3,6-dioxaoctane-1,8-diol]
Amount of HL-60 cancer cells adhered (fluorescence intensity) [1]: 17957
Amount of Colo 201 cells adhered (fluorescence intensity) [2]: 212789
Amount of HL-60 cancer cells adhered (fluorescence intensity) [3]: 6439

CCCCCCCCCCCCCCC(CCCCCCCCCCCCCC)C(=O)Nc1ccc(COCCOCCOCCOCCO[C@@H]2O[C@H](CO)[C@@H](O[C@@H]3O[C@H](CO)[C@H](O)[C@H](O[C@]4(C(=O)O)C[C@H](O)[C@@H](NC(C)=O)[C@H]([C@H](O)[C@H](O)CO)O4)[C@H]3O)[C@H](O[C@@H]3O[C@@H](C)[C@@H](O)[C@@H](O)[C@@H]3O)[C@H]2O)cc1 [Compound 5C, O-(5-acetamido-3,5-dideoxy-D-glycero-α-D-galacto-2-nonulopyranosylonic acid)-(2→3)-O-β-D-galactopyranosyl-(1→4)-[O-α-L-fucopyranosyl-(1→3)-O-β-D-glucopyranosyl]-(1→1)-11-O-para-(2-tetradecylhexadecanoyl)aminobenzyl-3,6,9-trioxaundecane-1,11-diol]
Amount of HL-60 cancer cells adhered (fluorescence intensity) [1]: 26907
Amount of Colo 201 cells adhered (fluorescence intensity) [2]: 240330
Amount of HL-60 cancer cells adhered (fluorescence intensity) [3]: 6762

CCCCCCCCCCCCCCC(CCCCCCCCCCCCCC)C(=O)Nc1ccc(COCCOCCOCCOCCOCCO[C@@H]2O[C@H](CO)[C@@H](O[C@@H]3O[C@H](CO)[C@H](O)[C@H](O[C@]4(C(=O)O)C[C@H](O)[C@@H](NC(C)=O)[C@H]([C@H](O)[C@H](O)CO)O4)[C@H]3O)[C@H](O[C@@H]3O[C@@H](C)[C@@H](O)[C@@H](O)[C@@H]3O)[C@H]2O)cc1 [Compound 5D, O-(5-acetamido-3,5-dideoxy-D-glycero-α-D-galacto-2-nonulopyranosylonic acid)-(2→3)-O-β-D-galactopyranosyl-(1→4)-[O-α-L-fucopyranosyl-(1→3)-O-β-D-glucopyranosyl]-(1→1)-5-O-para-(2-tetradecylhexadecanoyl)aminobenzyl-3,6,9,12-tetraoxatetradecane-1,14-diol]
Amount of HL-60 cancer cells adhered (fluorescence intensity) [1]: 17405
Amount of Colo 201 cells adhered (fluorescence intensity) [2]: 240554
Amount of HL-60 cancer cells adhered (fluorescence intensity) [3]: 2782
